According to ChEMBL document CHEMBL5036370, “Indole-Containing Pyrazino[2,1-b]quinazoline-3,6-diones Active against Plasmodium and Trypanosomatids” (ACS Med Chem Lett, 2022):
Calls of active or inactive are those of the source. The calls are words filed in the database; no cut-off is given here.

Tests used:
[1] = tested on: V79; assay: (§1) Cytotoxicity against Chinese hamster V79 cells measured after 24 hrs by MTT assay; format: cell-based, Cricetulus griseus; conditions: v79, 24 h
[2] = tested on: Plasmodium falciparum; assay: Antimalarial activity against CQ-sensitive Plasmodium falciparum 3D7 assessed as parasite growth inhibition incubated for 48 hrs by SYBR Green I dye based fluorescence assay; format: functional, organism-based; conditions: 3D7, 48 h
[3] = tested on: Trypanosoma brucei; assay: Antitrypanosomal activity against bloodstream form of Trypanosoma brucei Lister 427 assessed as parasite growth inhibition incubated for 72 hrs by resazurin staining based assay; format: functional, organism-based; conditions: Lister 427, 72 h
[4] = Cytotoxicity against human THP-1 cells assessed as reduction in cell viability measured after 72 hrs by MTT assay; format: cell-based
[5] = Selectivity index, ratio of CC50 for cytotoxicity against human THP-1 cells to IC50 for antitrypanosomal activity against bloodstream form of Trypanosoma brucei Lister 427; format: toxicity, cell-based; conditions: read-out: Ratio CC50/IC50
[6] = tested on: Leishmania infantum; assay: Antileishmanial activity against axenic amastigote stage of Leishmania infantum infected in THP-1 cells assessed as reduction in parasite growth at 10 uM incubated for 72 hrs by luminescence analysis; format: functional, organism-based
[7] = tested on: Trypanosoma brucei; assay: Antitrypanosomal activity against bloodstream form of Trypanosoma brucei Lister 427 assessed as parasite growth inhibition at 10 uM incubated for 72 hrs by resazurin staining based assay; format: functional, organism-based
[8] = Selectivity index, ratio of CC50 for cytotoxicity against human THP-1 cells to IC50 for antileishmanial activity against axenic amastigote stage of Leishmania infantum infected in THP-1 cells; format: toxicity, cell-based; conditions: read-out: Ratio CC50/IC50
[9] = tested on: Leishmania infantum; assay: Antileishmanial activity against axenic amastigote stage of Leishmania infantum infected in THP-1 cells assessed as reduction in parasite growth incubated for 72 hrs by luminescence analysis; format: functional, organism-based; conditions: THP-1, 72 h
[10] = tested on: Plasmodium falciparum; assay: Antiplasmodial activity against Plasmodium falciparum 3D7 infected in erythrocytes assessed as parasite growth inhibition measured after 72 hrs by LDH assay; format: functional, organism-based; conditions: 3D7, Erythrocyte
[11] = tested on: HepG2; assay: Cytotoxicity against human HepG2 cells; format: cell-based
[12] = as §1; format: cell-based, Cricetulus griseus; conditions: V79 cells, read-out: LD50
[13] = tested on: Hemozoin; assay: Inhibition of Beta-hematin formation at 24 to 96 uM after 24 hrs by microplate reader assay; conditions: dose 24-96 µM
[14] = Hemolytic activity against human erythrocytes at 0.04 to 10 uM incubated for 1 hr by microplate reader assay; format: ADME, tissue-based, Erythrocyte; conditions: dose 0.04-10 µM, read-out: Activity
[15] = Hemolytic activity against human erythrocytes at <=10 uM incubated for 1 hr by microplate reader assay; format: ADME, tissue-based; conditions: erythrocyte
[16] = Selectivity index, ratio of LD50 for cytotoxicity against Chinese hamster V79 cells to IC50 for antimalarial activity against CQ-sensitive Plasmodium falciparum 3D7; format: toxicity, cell-based; conditions: V79 cells versus Plasmodium falciparum 3D7, read-out: Ratio LD50/IC50
[17] = tested on: Hemozoin; assay: Inhibition of Beta-hematin formation at 12 to 48 uM after 24 hrs by microplate reader assay; conditions: dose 12-48 µM

Row | Structure (SMILES) | LD50 [1] | IC50 [2] [µM] | IC50 [3] [µM] | CC50 at 72 h [4] [µM] | selectivity ratio [5] | inhibition [6] | inhibition [7] | other results
1 | CC(C)C[C@@H]1NC(=O)[C@@H](Cc2c[nH]c3ccccc23)n2c1nc1ccc(O)cc1c2=O | Not Active | 0.73 | 8.6 | > 100 | > 11.6 | inactive |  | 
2 | CC(C)[C@@H]1NC(=O)[C@H](Cc2c[nH]c3ccccc23)n2c1nc1ccccc1c2=O | Not Active | > 10 | 4.6 | > 100 | > 21.7 | inactive |  | 
3 | Cc1ccc2nc3n(c(=O)c2c1)[C@H](Cc1c[nH]c2ccccc12)C(=O)N[C@H]3CC(C)C | Not Active | > 10 |  | > 100 |  | inactive | inactive | 
4 | CC(C)C[C@@H]1NC(=O)[C@H](Cc2c[nH]c3ccccc23)n2c1nc1ccccc1c2=O | Not Active | > 10 |  | 50 |  | inactive | inactive | 
5 | CC(C)C[C@H]1NC(=O)[C@@H](Cc2c[nH]c3ccccc23)n2c1nc1ccccc1c2=O | Not Active | 0.47 | 0.38 | 25 | 65.7 |  |  | selectivity ratio [8]: 9.6; IC50 [9]: 2.6 µM
6 | Clc1ccc2nccc(N3CCC(CN4CCC(c5c[nH]c6ccccc56)CC4)CC3)c2c1 |  |  |  |  |  |  |  | EC50 [10]: 0.034 µM; EC50 [11]: > 10 µM
7 | CC(C)C[C@@H]1NC(=O)[C@@H](Cc2c[nH]c3ccccc23)n2c1nc1ccc(I)cc1c2=O | Not Active | > 10 | 4.1 | 50 | 12.2 |  |  | selectivity ratio [8]: 6.7; IC50 [9]: 7.4 µM
8 | CSCC[C@@H]1NC(=O)[C@@H](Cc2c[nH]c3ccccc23)n2c1nc1ccccc1c2=O | Not Active | > 10 |  |  |  |  |  | 
9 | CC[C@H](C)[C@@H]1NC(=O)[C@@H](Cc2c[nH]c3ccccc23)n2c1nc1ccc(Cl)cc1c2=O | Not Active | > 10 |  |  |  |  |  | 
10 | CC(C)[C@H]1NC(=O)[C@H](Cc2c[nH]c3ccccc23)n2c1nc1ccccc1c2=O | Not Active | > 10 |  | > 100 |  | inactive | inactive | 
11 | COc1ccc2nc3n(c(=O)c2c1)[C@H](Cc1c[nH]c2ccccc12)C(=O)N[C@H]3CC(C)C | Not Active | > 10 |  | > 100 |  | inactive | inactive | 
12 | CC(C)[C@H]1NC(=O)[C@@H](Cc2c[nH]c3ccccc23)n2c1nc1ccccc1c2=O | Not Active | 0.15 | 7.1 | > 100 | > 14.1 | inactive |  | 
13 | O=C1N[C@@H](Cc2c[nH]c3ccccc23)c2nc3ccccc3c(=O)n2[C@@H]1Cc1c[nH]c2ccccc12 | Not Active | > 10 |  |  |  |  |  | 
14 | CC(C)C[C@@H]1NC(=O)[C@@H](Cc2c[nH]c3ccccc23)n2c1nc1cc(Cl)c(Cl)cc1c2=O |  | 0.2 | 5.9 | 25 | 4.2 | inactive |  | CC50 at 24 h [12]: 14 µM; inhibition [13]: inactive; hemolysis at 1 h, up to 10 µM [14]: < 6%; Activity [15]: Non-Toxic; selectivity ratio [16]: 70
15 | O=C1N[C@H](Cc2ccc(OCc3ccccc3)cc2)c2nc3ccccc3c(=O)n2[C@H]1Cc1c[nH]c2ccccc12 | Not Active | > 10 | 1.6 | > 100 | > 62.5 | inactive |  | 
16 | CC(C)C[C@@H]1NC(=O)[C@@H](Cc2c[nH]c3ccccc23)n2c1nc1ccc(Cl)cc1c2=O | Not Active | > 10 |  |  |  |  |  | 

Row | Structure (SMILES) | LD50 [1] | IC50 [2] [µM] | IC50 [3] [µM] | CC50 at 72 h [4] [µM] | selectivity ratio [5] | inhibition [6] | inhibition [7] | other results
17 | CC(C)C[C@@H]1NC(=O)[C@@H](Cc2c[nH]c3ccccc23)n2c1nc1cc(-c3nnnn3C)ccc1c2=O | Not Active | 1.02 |  | > 50 |  | inactive | inactive | 
18 | CC(C)C[C@@H]1NC(=O)[C@@H](Cc2c[nH]c3ccccc23)n2c1nc1cnccc1c2=O | Not Active | 4 |  | > 100 |  | inactive | inactive | 
19 | CC(C)C[C@@H]1NC(=O)[C@@H](Cc2c[nH]c3ccccc23)n2c1nc1ncccc1c2=O | Not Active | 3.76 |  | > 100 |  | inactive | inactive | 
20 | C[C@H]1NC(=O)[C@@H](Cc2c[nH]c3ccccc23)n2c1nc1ccccc1c2=O [FUMIQUINAZOLINE G] | Not Active | 3.68 |  |  |  |  |  | 
21 | CC(C)[C@@H]1NC(=O)[C@@H](Cc2c[nH]c3ccccc23)n2c1nc1ccccc1c2=O |  | 0.1 |  | > 100 |  | inactive | inactive | CC50 at 24 h [12]: 1.91 µM; inhibition [17]: inactive; hemolysis at 1 h, up to 10 µM [14]: < 6%; Activity [15]: Non-Toxic; selectivity ratio [16]: 19
22 | CC[C@H](C)[C@@H]1NC(=O)[C@@H](Cc2c[nH]c3ccccc23)n2c1nc1cc(Cl)c(Cl)cc1c2=O | Not Active | 1.51 | 5.8 | 50 | 8.6 | inactive |  | 
23 | CC(C)C[C@@H]1NC(=O)[C@@H](Cc2c[nH]c3ccccc23)n2c1nc1ccccc1c2=O |  | 0.05 |  | > 100 |  | inactive | inactive | CC50 at 24 h [12]: 1.78 µM; inhibition [17]: inactive; hemolysis at 1 h, up to 10 µM [14]: < 6%; Activity [15]: Non-Toxic; selectivity ratio [16]: 34
24 | CC(C)C[C@H]1NC(=O)[C@H](Cc2c[nH]c3ccccc23)n2c1nc1ccccc1c2=O | Not Active | 2 |  | > 100 |  | inactive | inactive | 
25 | CCN(CC)CCCC(C)Nc1ccnc2cc(Cl)ccc12 (stereo not drawn) [CHLOROQUINE] |  |  |  |  |  |  |  | Activity [15]: Non-Toxic
26 | CC(C)C[C@@H]1NC(=O)[C@@H](Cc2c[nH]c3ccccc23)n2c1nc1cc(I)c(I)cc1c2=O | Not Active | > 10 |  |  |  |  |  | 
27 | N=C(N)c1ccc(OCCCCCOc2ccc(C(=N)N)cc2)cc1 [PENTAMIDINE] |  |  |  | > 10 |  | inactive |  | 
28 | CC[C@H](C)[C@@H]1NC(=O)[C@@H](Cc2c[nH]c3ccccc23)n2c1nc1ccc(Br)cc1c2=O | Not Active | > 10 | 5.3 | 50 | 9.4 |  |  | selectivity ratio [8]: 6.4; IC50 [9]: 7.8 µM
29 | CCCCCCCCCCCCCCCCOP(=O)([O-])OCC[N+](C)(C)C [MILTEFOSINE] |  |  |  | 28.8 |  |  | inactive | selectivity ratio [8]: 28.8; IC50 [9]: 1 µM
30 | CC[C@H](C)[C@@H]1NC(=O)[C@@H](Cc2c[nH]c3ccccc23)n2c1nc1ccccc1c2=O | Not Active | > 10 |  |  |  |  |  | 
31 | O=C1N[C@@H](Cc2ccc(OCc3ccccc3)cc2)c2nc3cc(Cl)c(Cl)cc3c(=O)n2[C@@H]1Cc1c[nH]c2ccccc12 | Not Active | 4 | 3.9 | > 100 | > 25.6 | inactive |  | 
32 | O=C1N[C@H](Cc2ccc(O)cc2)c2nc3ccccc3c(=O)n2[C@H]1Cc1c[nH]c2ccccc12 | Not Active | 4.18 |  | > 100 |  | inactive | inactive | 
